The numbers were not newly measured in patent US20100166671A1, “ORGANIC COMPOUNDS” (priority 2006, published 2010), which cites them from elsewhere.

SMILES strings stand for the structures.

For the series the following is noted: single administration of a metered dose, aerosol formulation, treating asthma.

For `C[N+]1(C)CCC(OC(=O)C(O)(c2ccccc2)C2CCCC2)C1.[Br-]` (stereo not shown) [glycopyrrolate, 3-[(cyclopentyl-hydroxyphenylacetyl)oxy]-1,1-dimethylpyrrolidinium bromide], the duration of bronchodilation result is “up to 12 hours”.
